Where two headings read alike, the source gives them in different places.
Experiments:
[1] = test system: HIV-1; assay: microbe, parasite or virus in culture; type: cell-based
Description: (§1) FIG. 3. Anti-HIV activity of AZTDP-DL-PTBA from the National Cancer Institute Developmental Therapeutics Program In-Vitro Testing Results; NSC 648540-S/1; Plate 5440; Lab 9N; SSPL:129N; Primary Screen Assay; Test Date, Jan. 21, 1992; Solubility Ind.: 1; Report Date, Apr. 27, 1992; Cell Line, CEM-IW; Solvent: Saline<0.9% (MEDIA).
(§2) FIG. 4. Anti-HIV activity of AZddUDP-DL-PTBA from the National Cancer Institute Developmental Therapeutics Program In-Vitro Testing Results; NSC: 648541-T/1; Plate 5466; Lab 9N; SSPL: 129N; Primary Screen Assay; Test Date, Jan. 21, 1992; Solubility Ind.: 1; Report Date, Apr. 27, 1992; Cell Line: CEM-IW; Solvent: Saline<0.9% (MEDIA).
(§3) FIG. 5. Anti-HIV activity of ddCDP-DL-PTBA from the National Cancer Institute Developmental Therapeutic Program In-Vitro Testing Results; NSC: D- 652872-A/1; Plate 24; Lab 9N; Primary Screen Assay; Test Date, Jul. 23, 1992; Solubility Ind.: 1; Report Date: Aug. 7, 1992; Cell Line: CEM-IW; Solvent: Saline<0.9% (MEDIA).
(§4) FIG. 6. Anti-HIV activity of AZTDP-DL-PMA from the National Cancer Institute Developmental Therapeutics Program In-Vitro Testing Results; NSC: D- 652873-C/1; Plate 24; Lab 9N; SSPL: 129N; Primary Screen Assay; Test Date, Jul. 23, 1992; Solubility Ind.: 1; Report Date, Sep. 11, 1992; Cell Line: CEM-IW; Solvent: Saline<0.9% (MEDIA).
Anti-HIV evaluation for the compounds was performed at the National Cancer Institute, National Institute of Health and is presented in FIGS. 3-6.
(§5) The procedure is designed to detect agents acting at any stage of the virus reproductive cycle (Weislow, et al., J. Natl. Cancer Inst. 81, 577, 1989). The assay basically involves the killing of T4 lymphocytes by HIV. Small amounts of HIV are added to cells, and a complete cycle of virus reproduction is necessary to obtain the required cell killing. Agents that interact with virions, cells, or virus gene-products to interfere with viral activities will protect cells from cytolysis. Compounds that degenerate or are rapidly metabolized in the culture conditions may not show activity in this screen. All tests are compared with at least one positive (e.g., AZT-treated) control done at the same time under identical conditions.
(§6) Compound was dissolved in DMSO then diluted 1:100 in cell culture medium before preparing serial half-log10 dilutions. T4 lymphocytes (CEM cell line) were added and after a brief interval HIV-1 was added, resulting in a 1:200 final dilution of the compound. Uninfected cells with the compound served as a toxicity control, and infected and uninfected without the compound served as basic controls. Cultures were incubated at 37° C. in a 5% CO2 atmosphere for 6 days. The tetrazolium salt, XTT, was added to the wells, and cultures were incubated to allow formazan color development by viable cells. Individual wells were analyzed spectrophotometrically to quantitate formazan production, and in addition were viewed microscopically for detection of viable cells and confirmation of protective activity. Drug-treated virus-infected cells were compared with drug-treated noninfected cells and with other appropriate controls (untreated infected and untreated noninfected cells, drug-containing wells without cells, etc.) on the same plate. Data were reviewed in comparison with other tests done at the same time and a determination about activity was made.

[2] = Cytotoxicity to uninfected CEM cells (toxicity control of the anti-HIV assay); type: cell-based; conditions: human
Description: as §1, §2, §3, §4, §5, §6

[3] = test system: L1210 lymphoid leukemia; assay: In vivo test against i.p. implanted L1210 lymphoid leukemia in DBA/2J mice
Procedure: AZTDP-DL-PTBA was also tested for in vivo cytotoxicity against i.p. implanted L1210 lymphoid leukemia (10^6 cells) in DBA/2J mice.

[4] = in vivo; design: species or system Female NIH-Swiss mice; conditions: mouse, ip, 394 mg/kg
Procedure: FIG. 7. Mouse serum concentration of AZT following administration of AZT or AZTDP-DL-PTBA Female NIH-Swiss mice weighing 25-30 g were administered i.p. with AZT (100 mg/kg) or AZTDP-DL-PTBA (394 mg/kg, equivalent to 100 mg/kg AZT). Three mice were sacrificed at the designated time (up to 24 hr) and AZT in the serum was analyzed by a HPLC method.
Female NIH-Swiss mice weighing 25-30 g were administered intraperitoneally (i.p.) with 394 mg/kg of AZTDP-DL-PTBA (equivalent to 100 mg/kg AZT). Three mice were sacrificed at the designated time (up to 24 hours) and AZT in the serum was analyzed by an HPLC method. […] The intact conjugate level in the serum was unable to be checked by the HPLC method.

[5] = Solubility in water; type: physicochemical
Procedure: Solubility of AZTDP-DL-PTBA in water is only 0.58 mM. Thus, the compounds in the present invention were formulated in a micellar solution by sonication for the biological testings such as anti-HIV screenings. The compound was suspended in sterile water and then sonicated using a Branson Sonifier Cell Disruptor 200 at control 2-3 for 5 min (temp 20°-60° C.). The solution was sterile-filtered through a 0.22 μm membrane filter into a sterile receiving container under a laminar flow cabinet. The compound was existed as micelles and the micellar solution was stored in a refrigerator.

## CCCCCCCCCCCCCCCCCCSCC(COP(=O)(O)OP(=O)(O)OC[C@H]1O[C@@H](n2cc(C)c(=O)[nH]c2=O)C[C@@H]1N=[N+]=[N-])OC(=O)CCCCCCCCCCCCCCC (mixture of isomers) [AZTDP-DL-PTBA]
[1]; HIV-infected CEM cells
  concentration at which protection was lost: 180 µM
[1]; Human immunodeficiency virus 1, CCRF-CEM, at as low as 5.80×10^-7 M, read-out: protected HIV-infected CEM cells
  viability at 0.58 µM: 80%
[1]; Human immunodeficiency virus 1, CCRF-CEM, dose 1.80 × 10^-4 Molar (Tables 1, 2), read-out: INFECTED RESPONSE Percent of Control
  viability at 180 µM: 1.53%
[1]; Human immunodeficiency virus 1, CCRF-CEM, dose 1.80 × 10^-5 Molar (Tables 1, 2), read-out: INFECTED RESPONSE Percent of Control
  viability at 18 µM: 110%
[1]; Human immunodeficiency virus 1, CCRF-CEM, dose 1.80 × 10^-6 Molar (Tables 1, 2), read-out: INFECTED RESPONSE Percent of Control
  viability at 1.8 µM: 95.6%
[1]; Human immunodeficiency virus 1, CCRF-CEM, dose 5.80 × 10^-4 Molar (Tables 1, 2), read-out: INFECTED RESPONSE Percent of Control
  viability at 580 µM: 0.57%
[1]; Human immunodeficiency virus 1, CCRF-CEM, dose 5.80 × 10^-5 Molar (Tables 1, 2), read-out: INFECTED RESPONSE Percent of Control
  viability at 58 µM: 122%
[1]; Human immunodeficiency virus 1, CCRF-CEM, dose 5.80 × 10^-6 Molar (Tables 1, 2), read-out: INFECTED RESPONSE Percent of Control
  viability at 5.8 µM: 98.1%
[1]; Human immunodeficiency virus 1, CCRF-CEM, dose 5.80 × 10^-7 Molar (Tables 1, 2), read-out: INFECTED RESPONSE Percent of Control
  viability at 0.58 µM: 81.6%
[1]; NCI screen conclusion, Tables 1-4
  Conclusion: CONFIRMED ACTIVE
[1]; NCI screening results
  conclusion / reported as anti-HIV drug: active
[1]; result in words
  in vitro anti-HIV activity: strong in vitro anti-HIV activity
[2]; cem cells, read-out: concentration at which the compound started to show the cytotoxicity
  MCC: 100 µM
[2]; uninfected cem cells, dose 1.80 × 10^-4 Molar (Tables 1, 2), read-out: UNINFECTED RESPONSE Percent of Control
  viability at 180 µM: 0.9%
[2]; uninfected cem cells, dose 1.80 × 10^-5 Molar (Tables 1, 2), read-out: UNINFECTED RESPONSE Percent of Control
  viability at 18 µM: 106%
[2]; uninfected cem cells, dose 1.80 × 10^-6 Molar (Tables 1, 2), read-out: UNINFECTED RESPONSE Percent of Control
  viability at 1.8 µM: 98.7%
[2]; uninfected cem cells, dose 5.80 × 10^-4 Molar (Tables 1, 2), read-out: UNINFECTED RESPONSE Percent of Control
  viability at 580 µM: -0.54%
[2]; uninfected cem cells, dose 5.80 × 10^-5 Molar (Tables 1, 2), read-out: UNINFECTED RESPONSE Percent of Control
  viability at 58 µM: 113%
[2]; uninfected cem cells, dose 5.80 × 10^-6 Molar (Tables 1, 2), read-out: UNINFECTED RESPONSE Percent of Control
  viability at 5.8 µM: 95.9%
[2]; uninfected cem cells, dose 5.80 × 10^-7 Molar (Tables 1, 2), read-out: UNINFECTED RESPONSE Percent of Control
  viability at 0.58 µM: 97%
[2]; CEM cells, read-out: cytotoxicity (IC50)
  CC50: 110 µM
[2]; uninfected CEM-IW cells, 6 days, XTT, Tables 1-4, read-out: 1C50(Molar) (cytotoxicity)
  CC50 at 144 h: 110 µM
[3]; 100-300 mg (95-285 μmole)/kg, L1210 10^6 cells i.p.
  % ILS (increase in life span): 0%
[3]; 100-300 mg/kg, leukemic mice
  Toxicity: Toxicity as reflected in weight loss was observed
[4]
  half-life: 7.85 h
[5]
  solubility: 580 µM
